# Biological target: bovine carbonic anhydrase (Bos taurus, UniProt P00921)
# Assay: Inhibition of bovine carbonic anhydrase esterase activity (hydrolysis of p-nitrophenyl acetate, UV 348 nm)
# Conditions: for % inhibition of the hydrolysis of nitrophenyl acetate (NPA) catalyzed by carbonic anhydrase: 25° C.; for inhibition with respect to carboanhydrase, in words: comparable with or even superior to that of acetazolamide
# Sequence of bovine carbonic anhydrase (P00921 whole entry): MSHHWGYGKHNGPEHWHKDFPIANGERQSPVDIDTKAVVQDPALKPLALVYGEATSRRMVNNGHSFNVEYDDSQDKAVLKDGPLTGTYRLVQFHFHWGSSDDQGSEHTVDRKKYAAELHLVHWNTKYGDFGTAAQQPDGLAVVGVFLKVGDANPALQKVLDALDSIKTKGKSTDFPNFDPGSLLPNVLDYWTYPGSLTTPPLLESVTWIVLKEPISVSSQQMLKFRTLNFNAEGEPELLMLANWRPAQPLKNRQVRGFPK
Structure (SMILES),% inhibition of the hydrolysis of nitrophenyl acetate (NPA) catalyzed by carbonic anhydrase (inhibitor 1.35 10^−4 mol/l) [%],% inhibition of the hydrolysis of nitrophenyl acetate (NPA) catalyzed by carbonic anhydrase (inhibitor 1.35 10^−6 mol/l) [%],% inhibition of the hydrolysis of nitrophenyl acetate (NPA) catalyzed by carbonic anhydrase (inhibitor 1.35 10^−7 mol/l) [%],"inhibition with respect to carboanhydrase, in words",% inhibition of the hydrolysis of nitrophenyl acetate (NPA) catalyzed by carbonic anhydrase (inhibitor 1.35 10^−8 mol/l) [%]
"O=S(=O)(NS(=O)(=O)C(F)(F)C(F)(F)C(F)(F)C(F)(F)C(F)(F)C(F)(F)F)C(F)(F)C(F)(F)C(F)(F)C(F)(F)C(F)(F)C(F)(F)F [(C6F13SO2)2NH, bis(1,1,2,2,3,3,4,4,5,5,6,6,6)tridecafluoro-n-hexylsulfinimide]",85,0,,,
O=S(=O)(NS(=O)(=O)C(F)(F)C(F)(F)C(F)(F)C(F)(F)F)C(F)(F)C(F)(F)C(F)(F)C(F)(F)F [(C4F9SO2)2NH],65,0,,,
O=S(=O)(NS(=O)(=O)C(F)(F)C(F)(F)C(F)(F)C(F)(F)C(F)(F)C(F)(F)C(F)(F)C(F)(F)F)C(F)(F)C(F)(F)C(F)(F)C(F)(F)F [(C4F9SO2)NH(C8F17SO2)],97,0,,,
"[NH-]S(=O)(=O)C(F)(F)C(F)(F)C(F)(F)C(F)(F)C(F)(F)C(F)(F)C(F)(F)C(F)(F)F.[Na+] [C8F17SO2NH^−+Na, sodium 1,1,2,2,3,3,4,4,5,5,6,6,7,7,8,8,8-heptadecafluoro-n-octylsulfamide anion]",,94,40,very considerable inhibition,17
[Li+].[NH-]S(=O)(=O)C(F)(F)C(F)(F)C(F)(F)C(F)(F)C(F)(F)C(F)(F)C(F)(F)C(F)(F)F [C8F17SO2NH^−+Li],,85,3,,
"NS(=O)(=O)C(F)(F)C(F)(F)C(F)(F)C(F)(F)S(N)(=O)=O [(C2F4SO2NH2)2, perfluorobutane-1,4-disulfamide]",,78,6,very considerable inhibition,1
O=S(=O)(NS(=O)(=O)C(F)(F)C(F)(F)C(F)(F)C(F)(F)C(F)(F)C(F)(F)C(F)(F)C(F)(F)F)C(F)(F)C(F)(F)C(F)(F)C(F)(F)C(F)(F)C(F)(F)F [(C8F17SO2)NH(C6F13SO2)],87,0,,,
O=S(=O)(NS(=O)(=O)C(F)(F)C(F)(F)C(F)(F)C(F)(F)C(F)(F)C(F)(F)C(F)(F)C(F)(F)F)C(F)(F)C(F)(F)C(F)(F)C(F)(F)C(F)(F)C(F)(F)C(F)(F)C(F)(F)F [(C8F17SO2)2NH],89,0,,,
O=S(=O)(NS(=O)(=O)C(F)(F)C(F)(F)C(F)(F)C(F)(F)C(F)(F)C(F)(F)F)C(F)(F)C(F)(F)C(F)(F)C(F)(F)F [(C6F13SO2)NH(C4F9SO2)],87,0,,,
"NS(=O)(=O)C(F)(F)C(F)(F)C(F)(F)C(F)(F)C(F)(F)C(F)(F)C(F)(F)C(F)(F)F [Example C8F17SO2NH2, 1,1,2,2,3,3,4,4,5,5,6,6,7,7,8,8,8-heptadecafluoro-octanesulfamide]",,88,7,very considerable inhibition,5

# More lines, main results first:
% inhibition of the hydrolysis of nitrophenyl acetate (NPA) catalyzed by carbonic anhydrase (inhibitor 1.35 10^−4 mol/l) [%],% inhibition of the hydrolysis of nitrophenyl acetate (NPA) catalyzed by carbonic anhydrase (inhibitor 1.35 10^−6 mol/l) [%],Structure (SMILES),% inhibition of the hydrolysis of nitrophenyl acetate (NPA) catalyzed by carbonic anhydrase (inhibitor 1.35 10^−7 mol/l) [%],"inhibition with respect to carboanhydrase, in words",% inhibition of the hydrolysis of nitrophenyl acetate (NPA) catalyzed by carbonic anhydrase (inhibitor 1.35 10^−8 mol/l) [%]
,80,NS(=O)(=O)C(F)(F)C(F)(F)C(F)(F)C(F)(F)C(F)(F)C(F)(F)C(F)(F)F [Example C7F15SO2NH2],0,,
73,0,"CCCCCCS(N)(=O)=O [Example C6H13SO2NH2, n-hexanesulfamide, reference compound]",,,
,36,NS(=O)(=O)CCC(F)(F)C(F)(F)C(F)(F)C(F)(F)C(F)(F)C(F)(F)C(F)(F)C(F)(F)F [C8F17(CH2)2SO2NH2],,,
86,5,"CCCCCCCCS(N)(=O)=O [Example C8H17SO2NH2, n-octanesulfamide, reference compound]",,,

# Reference: patent US20080015255A1, “Pharmaceutical Compositions Based on Fluorinated Sulphamides and Sulphinimides” (CENTRE NATIONAL DE LA RECHERCHE SCIENTIFIQUE(C.N.R.S.), priority 2004, published 2008)
